Data as given in PubChem BioAssay AID1259407 (Chemical Carcinogenesis Research Information System (CCRIS), 2018).
Activity calls are given as the source filed them. No rule for the calls is given here.

Test system: CCRIS mutagenicity, Ames/micronucleus/aberration tests
Experiment: CCRIS mutagenicity studies
[1] = Test System: AMES SALMONELLA TYPHIMURIUM, Strain/Indicator: TA100, Metabolic Activation: NONE, Method: STANDARD PLATE

Question: What does the source list for `O=NN1CCCCC1`?
Answer: mutagenic call (Test System: AMES SALMONELLA TYPHIMURIUM, Strain/Indicator: TA98, Metabolic Activation: HAMSTER, LIVER, S-9, AROCLOR 1254 (10%), Method: PREINCUBATION): active; positive; mutagenic call (Test System: AMES SALMONELLA TYPHIMURIUM, Strain/Indicator: TA98, Metabolic Activation: HAMSTER, LIVER, S-9, AROCLOR 1254 (10%), Method: STANDARD PLATE): active; positive; mutagenic call (Test System: AMES SALMONELLA TYPHIMURIUM, Strain/Indicator: TA98, Metabolic Activation: HAMSTER, LIVER, S-9, AROCLOR 1254, Method: PREINCUBATION): active; positive; mutagenic call (Test System: AMES SALMONELLA TYPHIMURIUM, Strain/Indicator: TA98, Metabolic Activation: HAMSTER, LIVER, S-9, AROCLOR 1254, Method: STANDARD PLATE): active; positive; mutagenic call (Test System: AMES SALMONELLA TYPHIMURIUM, Strain/Indicator: TA98, Metabolic Activation: NONE, Method: PREINCUBATION): inactive; negative; mutagenic call (Test System: AMES SALMONELLA TYPHIMURIUM, Strain/Indicator: TA98, Metabolic Activation: NONE, Method: STANDARD PLATE): inactive; negative; mutagenic call (Test System: AMES SALMONELLA TYPHIMURIUM, Strain/Indicator: TA98, Metabolic Activation: RAT, LIVER, S-9, AROCLOR 1254 (10%), Method: PREINCUBATION): inactive; negative; mutagenic call (Test System: AMES SALMONELLA TYPHIMURIUM, Strain/Indicator: TA98, Metabolic Activation: RAT, LIVER, S-9, AROCLOR 1254 (10%), Method: STANDARD PLATE): inactive; negative; mutagenic call (Test System: AMES SALMONELLA TYPHIMURIUM, Strain/Indicator: TA98, Metabolic Activation: RAT, LIVER, S-9, AROCLOR 1254, Method: PREINCUBATION): inactive; negative; mutagenic call (Test System: AMES SALMONELLA TYPHIMURIUM, Strain/Indicator: TA98, Metabolic Activation: RAT, LIVER, S-9, AROCLOR 1254, Method: STANDARD PLATE): inactive; negative; mutagenic call (Test System: AMES SALMONELLA TYPHIMURIUM, Strain/Indicator: TA100, Metabolic Activation: HAMSTER, LIVER, S-9, AROCLOR 1254 (10%), Method: PREINCUBATION): active; positive; mutagenic call (Test System: AMES SALMONELLA TYPHIMURIUM, Strain/Indicator: TA100, Metabolic Activation: HAMSTER, LIVER, S-9, AROCLOR 1254 (10%), Method: STANDARD PLATE): active; positive; mutagenic call (Test System: AMES SALMONELLA TYPHIMURIUM, Strain/Indicator: TA100, Metabolic Activation: HAMSTER, LIVER, S-9, AROCLOR 1254, Method: PREINCUBATION): active; positive; mutagenic call (Test System: AMES SALMONELLA TYPHIMURIUM, Strain/Indicator: TA100, Metabolic Activation: HAMSTER, LIVER, S-9, Method: PREINCUBATION): active; positive; mutagenic call (Test System: AMES SALMONELLA TYPHIMURIUM, Strain/Indicator: TA100, Metabolic Activation: HUMAN, LIVER, S-9, Method: PREINCUBATION): active; positive; mutagenic call (Test System: AMES SALMONELLA TYPHIMURIUM, Strain/Indicator: TA100, Metabolic Activation: MOUSE, LIVER, S-9, Method: PREINCUBATION): active; positive; mutagenic call (Test System: AMES SALMONELLA TYPHIMURIUM, Strain/Indicator: TA100, Metabolic Activation: NONE, Method: PREINCUBATION): inactive; negative; mutagenic call [1]: inactive; negative; mutagenic call (Test System: AMES SALMONELLA TYPHIMURIUM, Strain/Indicator: TA100, Metabolic Activation: RABBIT, LIVER, S-9, Method: STANDARD PLATE): inactive; negative; mutagenic call (Test System: AMES SALMONELLA TYPHIMURIUM, Strain/Indicator: TA100, Metabolic Activation: RABBIT, LUNG, S-9, Method: STANDARD PLATE): active; positive; mutagenic call (Test System: AMES SALMONELLA TYPHIMURIUM, Strain/Indicator: TA100, Metabolic Activation: RABBIT, NASAL, S-9, Method: STANDARD PLATE): inactive; negative; mutagenic call (Test System: AMES SALMONELLA TYPHIMURIUM, Strain/Indicator: TA100, Metabolic Activation: RAT, LIVER, S-9, AROCLOR 1254 (10%), Method: PREINCUBATION): active; positive; mutagenic call (Test System: AMES SALMONELLA TYPHIMURIUM, Strain/Indicator: TA100, Metabolic Activation: RAT, LIVER, S-9, AROCLOR 1254 (10%), Method: STANDARD PLATE): inactive; negative; mutagenic call (Test System: AMES SALMONELLA TYPHIMURIUM, Strain/Indicator: TA100, Metabolic Activation: RAT, LIVER, S-9, AROCLOR 1254, Method: PREINCUBATION): active; positive; mutagenic call (Test System: AMES SALMONELLA TYPHIMURIUM, Strain/Indicator: TA100, Metabolic Activation: RAT, LIVER, S-9, AROCLOR 1254, Method: STANDARD PLATE): inactive; negative; mutagenic call (Test System: AMES SALMONELLA TYPHIMURIUM, Strain/Indicator: TA100, Metabolic Activation: RAT, LUNG, S-9, Method: STANDARD PLATE): inactive; negative; mutagenic call (Test System: AMES SALMONELLA TYPHIMURIUM, Strain/Indicator: TA100, Metabolic Activation: RAT, NASAL, S-9, Method: STANDARD PLATE): active; positive; mutagenic call (Test System: AMES SALMONELLA TYPHIMURIUM, Strain/Indicator: TA100, Metabolic Activation: TOBACCO CELLS, Method: PREINCUBATION): inactive; negative; mutagenic call (Test System: AMES SALMONELLA TYPHIMURIUM, Strain/Indicator: TA104, Metabolic Activation: RAT, LIVER, S-9, AROCLOR 1254, Method: PREINCUBATION): active; positive; mutagenic call (Test System: AMES SALMONELLA TYPHIMURIUM, Strain/Indicator: TA1530, Metabolic Activation: RAT LIVER, CYTOSOL, ISONIAZID, Method: PREINCUBATION): inactive; negative; mutagenic call (Test System: AMES SALMONELLA TYPHIMURIUM, Strain/Indicator: TA1530, Metabolic Activation: RAT LIVER, MICROSOMES, ISONIAZID, Method: PREINCUBATION): active; positive; mutagenic call (Test System: AMES SALMONELLA TYPHIMURIUM, Strain/Indicator: TA1530, Metabolic Activation: RAT, LIVER, S-9, Method: STANDARD PLATE): active; positive; mutagenic call (Test System: AMES SALMONELLA TYPHIMURIUM, Strain/Indicator: TA1535, Metabolic Activation: HAMSTER, LIVER, S-9, AROCLOR 1254 (10%), Method: PREINCUBATION): active; positive; mutagenic call (Test System: AMES SALMONELLA TYPHIMURIUM, Strain/Indicator: TA1535, Metabolic Activation: HAMSTER, LIVER, S-9, AROCLOR 1254, Method: PREINCUBATION): active; positive; mutagenic call (Test System: AMES SALMONELLA TYPHIMURIUM, Strain/Indicator: TA1535, Metabolic Activation: NONE, Method: PREINCUBATION): inactive; negative; mutagenic call (Test System: AMES SALMONELLA TYPHIMURIUM, Strain/Indicator: TA1535, Metabolic Activation: RAT, LIVER, S-9, AROCLOR 1254 (10%), Method: PREINCUBATION): active; positive; mutagenic call (Test System: AMES SALMONELLA TYPHIMURIUM, Strain/Indicator: TA1535, Metabolic Activation: RAT, LIVER, S-9, AROCLOR 1254, Method: PREINCUBATION): active; positive; mutagenic call (Test System: AMES SALMONELLA TYPHIMURIUM, Strain/Indicator: TA1535, Metabolic Activation: RAT, LIVER, S-9, Method: STANDARD PLATE): active; positive; mutagenic call (Test System: AMES SALMONELLA TYPHIMURIUM, Strain/Indicator: TA1537, Metabolic Activation: HAMSTER, LIVER, S-9, AROCLOR 1254 (10%), Method: PREINCUBATION): inactive; negative; mutagenic call (Test System: AMES SALMONELLA TYPHIMURIUM, Strain/Indicator: TA1537, Metabolic Activation: HAMSTER, LIVER, S-9, AROCLOR 1254, Method: PREINCUBATION): inactive; negative; mutagenic call (Test System: AMES SALMONELLA TYPHIMURIUM, Strain/Indicator: TA1537, Metabolic Activation: NONE, Method: PREINCUBATION): inactive; negative; mutagenic call (Test System: AMES SALMONELLA TYPHIMURIUM, Strain/Indicator: TA1537, Metabolic Activation: RAT, LIVER, S-9, AROCLOR 1254 (10%), Method: PREINCUBATION): inactive; negative; mutagenic call (Test System: AMES SALMONELLA TYPHIMURIUM, Strain/Indicator: TA1537, Metabolic Activation: RAT, LIVER, S-9, AROCLOR 1254, Method: PREINCUBATION): inactive; negative; mutagenic call (Test System: AMES SALMONELLA TYPHIMURIUM, Strain/Indicator: TA1538, Metabolic Activation: HAMSTER, LIVER, S-9, AROCLOR 1254 (10%), Method: PREINCUBATION): inactive; negative; mutagenic call (Test System: AMES SALMONELLA TYPHIMURIUM, Strain/Indicator: TA1538, Metabolic Activation: HAMSTER, LIVER, S-9, AROCLOR 1254, Method: PREINCUBATION): inactive; negative; mutagenic call (Test System: AMES SALMONELLA TYPHIMURIUM, Strain/Indicator: TA1538, Metabolic Activation: NONE, Method: PREINCUBATION): inactive; negative; mutagenic call (Test System: AMES SALMONELLA TYPHIMURIUM, Strain/Indicator: TA1538, Metabolic Activation: RAT, LIVER, S-9, AROCLOR 1254 (10%), Method: PREINCUBATION): inactive; negative; mutagenic call (Test System: AMES SALMONELLA TYPHIMURIUM, Strain/Indicator: TA1538, Metabolic Activation: RAT, LIVER, S-9, AROCLOR 1254, Method: PREINCUBATION): inactive; negative; mutagenic call (Test System: AMES SALMONELLA TYPHIMURIUM, Strain/Indicator: TA1975, Metabolic Activation: RAT, LIVER, S-9, AROCLOR 1254, Method: PREINCUBATION): active; positive; mutagenic call (Test System: UDS RODENT CELLS, Strain/Indicator: THY INCORP (NON-S-PHASE), Metabolic Activation: NONE, Method: LIQUID SCINTILLATION COUNTING): inactive; negative; mutagenic call (Test System: UDS RODENT CELLS, Strain/Indicator: THY INCORP (NON-S-PHASE), Metabolic Activation: RAT, LIVER, S-9, SODIUM PHENOBARBITAL, Method: LIQUID SCINTILLATION COUNTING): active; positive

Question: For `O=[N+]([O-])c1cccc2cnsc12`, which mutagenic call [1] is on record?
Answer: active; positive
